Patent publication US6849612B2, “Oligonucleotide modulation of cell adhesion” (ISIS Pharmaceuticals, Inc., priority 1993, dated 2005)
Strand notation (5' to 3'): a small letter for the sugar, then the base; units joined by * are phosphorothioate-linked, units joined directly phosphodiester-linked; [ ] holds rarer units or linkages, { } end groups; capitals alone tell only the bases. d = 2'-deoxy (DNA)

Tests used:
[1] = system: ICAM-1; test: ELISA of ICAM-1 expression in primary human keratinocytes; type: cell-based
Procedure: Expression of ICAM-1, VCAM-1 and ELAM-1 on the surface of cells can be quantitated using specific monoclonal antibodies in an ELISA. Cells are grown to confluence in 96 well microtiter plates. The cells are stimulated with either interleukin-1 or tumor necrosis factor for 4 to 8 hours to quantitate ELAM-1 and 8 to 24 hours to quantitate ICAM-1 and VCAM-1. Following the appropriate incubation time with the cytokine, the cells are gently washed three times with a buffered isotonic solution containing calcium and magnesium such as Dulbecco's phosphate buffered saline (D-PBS). The cells are then directly fixed on the microtiter plate with 1 to 2% paraformaldehyde diluted in D-PBS for 20 minutes at 25° C. The cells are washed again with D-PBS three times. Nonspecific binding sites on the microtiter plate are blocked with 2% bovine serum albumin in D-PBS for 1 hour at 37° C. Cells are incubated with the appropriate monoclonal antibody diluted in blocking solution for 1 hour at 37° C. Unbound antibody is removed by washing the cells three times with D-PBS. Antibody bound to the cells is detected by incubation with a 1:1000 dilution of biotinylated goat anti-mouse IgG (Bethesda Research Laboratories, Gaithersburg, Md.) in blocking solution for 1 hour at 37° C. Cells are washed three times with D-PBS and then incubated with a 1:1000 dilution of streptavidin conjugated to β-galactosidase (Bethesda Research Laboratories) for 1 hour at 37° C. The cells are washed three times with D-PBS for 5 minutes each. The amount of β-galactosidase bound to the specific monoclonal antibody is determined by developing the plate in a solution of 3.3 mM chlorophenolred-β-D-galactopyranoside, 50 mM sodium phosphate, 1.5 mM MgCl2; pH=7.2 for 2 to 15 minutes at 37° C. The concentration of the product is determined by measuring the absorbance at 575 nm in an ELISA microtiter plate reader. […]
Cells grown in 96-well plates were washed three times with Opti-MEM (GIBCO, Grand Island, N.Y.) prewarmed to 37° C. […] ICAM-1 expression was determined as described in Example 1. […]

[2] = system: ICAM-1; test: ELISA of ICAM-1 cell surface expression in oligonucleotide-pretreated, cytokine-stimulated HUVEC; type: cell-based, human
[3] = system: C8161 human melanoma cells; test: Experimental metastasis assay of oligonucleotide-treated C8161 cells in athymic nude mice; type: in vivo
Procedure: To evaluate the role of ICAM-1 in metastasis, experimental metastasis assays were performed by injecting 1×10^5 C8161 cells into the lateral tail vein of athymic nude mice. […] Assoc. Cancer Res. 1990, 13, 353].
After 4 weeks, mice were sacrificed, organs were fixed in Bouin's fixative and metastatic lesions on lungs were scored with the aid of a dissecting microscope. Four-week-old female athymic nude mice (Harlan Sprague Dawley) were used. Animals were maintained under the guidelines of the NIH. Groups of 4-8 mice each were tested in experimental metastasis assays.
Treatment of C8161 cells with antisense oligonucleotides ISIS 1570 and ISIS 2302, complementary to ICAM-1, was performed in the presence of the cationic lipid, Lipofectin (Gibco/BRL, Gaithersburg, Md.). Antisense oligonucleotides were synthesized as described in Example 3. Cells were seeded in 60 mm tissue culture dishes at 10^6 cells/ml and incubated at 37 °C for 3 days, washed with OPTI-MEM (Gibco/BRL) 3 times and 100 μl of OPTI-MEM medium was added to each well. 0.5 μM oligonucleotide and 15 μg/ml lipofectin were mixed at room temperature for 15 minutes. 25 μl of the oligonucleotide-lipofectin mixture was added to the appropriate dishes and incubated at 37° C. for 4 hours. The oligonucleotide-lipofectin mixture was removed and replaced with DME-F12 medium containing 10% fetal calf serum. After 4 hours, 500 U/ml TNF-α was added to the appropriate wells and incubated for 18 hours at which time cells were removed from the plates, counted and injected into athymic nude mice.

[4] = system: complementary DNA sequences (ICAM-1 target sites); test: Tm of oligonucleotide hybridized to complementary DNA; type: binding, human; settings: as E23
From the text: The antisense oligonucleotides (synthesized as phosphorothioates) were hybridized to their complementary DNA sequences (synthesized as phosphodiesters). […] Tm's and free energies of duplex formation were obtained from fits of data to a two-state model with linear sloping baselines ([…]. and D. H. […] Results are averages of at least three experiments.

ISIS 1570: phosphorothioate, human ICAM-1 AUG Codon (64-81), SEQ ID NO 1, TGGGAGCCATAGCGAGGC (antisense dT*dG*dG*dG*dA*dG*dC*dC*dA*dT*dA*dG*dC*dG*dA*dG*dG*dC)
inhibition of ICAM-1 expression [1]: inhibit ICAM-1 expression
inhibition of ICAM-1 expression ([2]; 0.1 μM oligonucleotide, HUVEC, 8 μM DOTMA, interleukin-1β 5 units/ml): 70%
inhibition of ICAM-1 expression ([2]; 1 μM oligonucleotide, HUVEC, 8 μM DOTMA, interleukin-1β 5 units/ml): 90%
inhibition of ICAM-1 expression ([2]; 1 μM, HUVEC stimulated with increasing concentrations of tumor necrosis factor and interleukin-1): inhibits expression of ICAM-1
effect on ICAM-1 expression after prehybridization to the sense strand ([2]; COMPOUND 2 prehybridized to COMPOUND 3 prior to addition to the cells): attenuated
No. Lung Metastases per Mouse (Mean ± S.E.M.) ([3]; C8161 cells treated with 0.5 μM oligonucleotide + Lipofectin + TNF-α, Lipofectin + TNF-α 81 ± 8): 49 ± 6
No. Lung Metastases per Mouse (Mean ± S.E.M.) ([3]; C8161 cells treated with 0.5 μM oligonucleotide + Lipofectin, no TNF-α, Lipofectin only 64 ± 13): 38 ± 15

ISIS 1939: P=S, human ICAM-1 3′-Untranslated (1952-1971), SEQ ID NO 15, CCCCCACCACTTCCCCTCTC (antisense dC*dC*dC*dC*dC*dA*dC*dC*dA*dC*dT*dT*dC*dC*dC*dC*dT*dC*dT*dC)
inhibition of ICAM-1 expression [1]: inhibit ICAM-1 expression
Tm relative to other oligonucleotides [4]: lower than that of the majority of the other oligonucleotides
